Results from patent publication US20260274829A1, “NEW E3 UBIQUITIN LIGASE LIGAND, PROTEIN DEGRADATION AGENT AND USE THEREOF” (GLUETACS THERAPEUTICS (SHANGHAI) CO., LTD., priority 2023, published 2026).

Biological target: T1, human Cereblon WT GST-tagged protein (Homo sapiens, UniProt Q96SW2)
T1 construct: purchased CISBIO 64BDCRBNPEH
Test: CRBN binding, HTRF CEREBLON BINDING kit
Details: CRBN binding; for IC50: HTRF CEREBLON BINDING kit
Procedure: The CEREBLON BINDING kits (specification: 10,000 tests; product number: Catalog #64BDCRBNPEH; CISBIO company) was used to determine the CRBN binding ability of the compounds to be tested through a HTRF method (homogeneous time-resolved fluorescence). The specific methods are as follows: • 1. […] Then, 2.5 μL of human Cereblon WT GST-tagged protein solution was added to each well. Finally, 5 μL of the thoroughly mixed Thalidomide-Re reagent and GST Eu antibody working solution were added to each of the aforementioned wells. […] The blank control wells were sequentially added with 2.5 μL of diluent #9 (1×) solution, 2.5 μL of binding buffer, and 5 μL of thoroughly mixed Thalidomide-Re reagent and GST Eu antibody working solution. • 4. After sealing and incubating the solutions in the aforementioned wells at room temperature for 3 hours, the absorbance values at emission wavelengths of 620 nm and 665 nm were detected by the HTRF method using a Spark microplate reader (V3.1 SP1).
The corresponding CRBN binding inhibition rate was calculated using the following method:
[formula] [formula] [formula] • Note: OD 665 nmcompound is the absorbance value of each well of the compounds to be tested of the present disclosure at an emission wavelength of 665 nm. • OD 620 nmcompound is the absorbance value of each well of the compounds to be tested of the present disclosure at an emission wavelength of 620 nm. • OD 665 nmcontrol is the absorbance value of the blank control well at an emission wavelength of 665 nm. • OD 620 nmcontrol is the absorbance value of the blank control well at an emission wavelength of 620 nm. • OD 665 nmStd0 is the absorbance value of the solvent control well at an emission wavelength of 665 nm. • OD 620 nmStd0 is the absorbance value of the solvent control well at an emission wavelength of 620 nm.

T1 sequence (Q96SW2 whole entry): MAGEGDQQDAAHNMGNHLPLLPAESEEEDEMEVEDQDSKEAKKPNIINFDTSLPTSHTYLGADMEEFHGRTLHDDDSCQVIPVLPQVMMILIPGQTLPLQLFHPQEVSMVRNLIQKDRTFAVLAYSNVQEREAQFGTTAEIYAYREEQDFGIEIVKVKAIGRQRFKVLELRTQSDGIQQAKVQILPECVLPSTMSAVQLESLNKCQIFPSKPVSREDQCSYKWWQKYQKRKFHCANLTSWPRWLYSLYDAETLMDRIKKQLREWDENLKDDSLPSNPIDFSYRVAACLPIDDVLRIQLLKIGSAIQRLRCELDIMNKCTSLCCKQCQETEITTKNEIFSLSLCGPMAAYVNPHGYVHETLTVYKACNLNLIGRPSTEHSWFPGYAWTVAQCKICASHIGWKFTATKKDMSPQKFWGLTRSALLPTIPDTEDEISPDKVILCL

SMILES | IC50 [nM] | further results
CN(C)C(=O)c1cc2cnc(Nc3ccc(N4CCC(N(C)Cc5ccc(N6CCC(=O)NC6=O)cn5)CC4)cn3)nc2n1C1CCCC1 [GT-06493, 7-cyclopentyl-2-((5-(4-(((5-(2,4-dioxotetrahydropyrimidin-1(2H)-yl)pyridin-2-yl)methyl)(methyl)amino)piperidin-1-yl)pyridin-2-yl)amino)-N,N-dimethyl-7H-pyrrolo[2,3-d]pyrimidine-6-carboxamide] | 500 to 1000 | 
COc1cc2nn(C3CCN(Cc4cc(N5CCC(=O)NC5=O)cnc4F)CC3)cc2cc1NC(=O)c1cccc(C(F)(F)F)c1 [GT-07781, N-(2-(1-((5-(2,4-dioxotetrahydropyrimidin-1(2H)-yl)-2-fluoropyridin-3-yl)methyl)piperidin-4-yl)-6-methoxy-2H-indazol-5-yl)-3-(trifluoromethyl)benzamide] |  | Inhibition rate (%) at 0.5 μM (HTRF, compound at 0.5 μM): a1 (10% < a1 ≤ 20%); Inhibition rate (%) at 2 μM (HTRF, compound at 2 μM): a5 (53% < a5 ≤ 60%)
O=C1CCN(c2cccc(CN3C[C@@H]4C[C@H]3CN4c3ccc(-c4cc(F)c5c(c4)C(=O)N(C(C(=O)Nc4nccs4)c4ncn6c4CCC6)C5)cc3)c2)C(=O)N1 (stereo partly drawn) [GT-05117, 2-(6,7-dihydro-5H-pyrrolo[1,2-c]imidazol-1-yl)-2-(6-(4-((1S,4S)-5-(3-(2,4-dioxotetrahydropyrimidin-1(2H)-yl)benzyl)-2,5-diazabicyclo[2.2.1]heptan-2-yl)phenyl)-4-fluoro-1-oxoisoindolin-2-yl)-N-(thiazol-2-yl)acetamide] | 500 to 1000 | 
Nc1nnc(-c2ccccc2O)cc1N1CCN(Cc2ccc(N3CCC(=O)NC3=O)cc2)CC1 [GT-04961, 1-(4-((4-(3-amino-6-(2-hydroxyphenyl)pyridazin-4-yl)piperazin-1-yl)methyl)phenyl)dihydropyrimidine-2,4(1H,3H)-dione] | 500 to 1000 | 
O=C1CCC(Nc2cccc(CN3CCN(C4CCN(c5ccc(-c6cc(F)c7c(c6)C(=O)N(C(C(=O)Nc6nccs6)c6ncn8c6CCC8)C7)cc5)CC4)CC3)c2)C(=O)N1 (centres unmarked) [GT-06247, 2-(6,7-dihydro-5H-pyrrolo[1,2-c]imidazol-1-yl)-2-(6-(4-(4-(4-(3-((2,6-dioxopiperidin-3-yl)amino)benzyl)piperazin-1-yl)piperidin-1-yl)phenyl)-4-fluoro-1-oxoisoindolin-2-yl)-N-(thiazol-2-yl)acetamide] | 500 to 1000 | 
Cc1nc2c(F)cc(-c3nc(Nc4ccc(N5CCC(N6CCN(Cc7ccc(N8CCC(=O)NC8=O)cn7)CC6)CC5)cn4)ncc3F)cc2n1C(C)C [GT-06741, 1-(6-((4-(1-(6-((5-fluoro-4-(4-fluoro-1-isopropyl-2-methyl-1H-benzo[d]imidazol-6-yl)pyrimidin-2-yl)amino)pyridin-3-yl)piperidin-4-yl)piperazin-1-yl)methyl)pyridin-3-yl)dihydropyrimidine-2,4(1H,3H)-dione] | 500 to 1000 | 
CC1(C)CCC(c2ccc(Cl)cc2)=C(CN2CCN(c3ccc(C(=O)NS(=O)(=O)c4ccc(N[C@H](CCN5CC6CCC(C5)N6Cc5ccc(C6CCC(=O)NC6=O)cc5)CSc5ccccc5)c(S(=O)(=O)C(F)(F)F)c4)cc3)CC2)C1 (stereo partly drawn) [GT-07858, 4-(4-((4′-chloro-4,4-dimethyl-3,4,5,6-tetrahydro-[1,1′-biphenyl]-2-yl)methyl)piperazin-1-yl)-N-((4-(((2R)-4-(8-(4-(2,6-dioxopiperidin-3-yl)benzyl)-3,8-diazabicyclo[3.2.1]octan-3-yl)-1-(phenylthio)butan-2-yl)amino)-3-((trifluoromethyl)sulfonyl)phenyl)sulfonyl)benzamide] |  | inhibition at 0.5 µM (HTRF, compound at 0.5 μM, read-out: Inhibition rate (%) at 0.5 μM): 30 to 40%; inhibition at 2 µM (HTRF, compound at 2 μM, read-out: Inhibition rate (%) at 2 μM): 60 to 80%

More lines, main results first:

IC50 [nM] | SMILES | further results
< 500 | CCc1cc2c(cc1N1CCC(N3CCN(Cc4cncc(N5CCC(=O)NC5=O)c4)CC3)CC1)C(C)(C)c1[nH]c3cc(C#N)ccc3c1C2=O [GT-07702, 8-(4-(4-((5-(2,4-dioxotetrahydropyrimidin-1(2H)-yl)pyridin-3-yl)methyl)piperazin-1-yl)piperidin-1-yl)-9-ethyl-6,6-dimethyl-11-oxo-6,11-dihydro-5H-benzo[b]carbazole-3-carbonitrile] | 
> 10000 | CN(C)C/C=C/C(=O)Nc1cc2c(Nc3ccc(F)c(Cl)c3)ncnc2cc1O[C@H]1CCOC1 [afatinib] | 
